According to patent US4868114A, “Method for elevating glutathione levels” (Regents of the University of Minnesota, priority 1989, dated 1989):

Experiments:
rat hepatocytes [1] = test: Stimulation of glutathione (GSH) biosynthesis in isolated rat hepatocytes by L-cysteine prodrugs; format: cell-based; conditions: for [GSH] ± SE: control 35.4 ± 0.78
Protocol: (§1) Rat hepatocytes were isolated following the methods of P. O. Seglen, Exper. […] After final plating, the hepatocytes were maintained in culture for 24 hr prior to use. Only primary cultures were used throughout the studies. The hepatocytes were incubated with the cysteine prodrugs for a 4-hr period, and after removal of media by aspiration, the cells were rinsed with cold phosphate-buffered saline and deproteinized with 5% sulfosalicylic acid. […] For the inhibition studies with BSO, the cells were pre-exposed to BSO (0.20 mM) before treatment with the L-cysteine prodrugs.

rat hepatocytes [2] = test: Inhibitory effect of buthionine sulfoximine (BSO) on GSH elevation elicited by L-cysteine prodrugs in rat hepatocytes; format: cell-based; conditions: for [GSH] ± SE: rat hepatocytes pre-exposed to BSO 0.2 mM, 4 hr; for [GSH] Rel. to Controls: rat hepatocytes, BSO 0.2 mM, 240 min
Protocol: as §1

[3] = system: acetaminophen-induced hepatotoxicity; test: Protection against acetaminophen-induced hepatotoxicity in mice; format: in vivo; conditions: prodrug 2.45 mmole/kg ip 30 min later; for Survival (48 hr) (%) / Survival (48 hr) (Number): LD90 acetaminophen 750 mg/kg ip; for Survival (48 hr) (Number): survivors/total; for Number of Animals with necrosis 0 / Number of Animals with necrosis 1+ / Number of Animals with necrosis 2+ / Number of Animals with necrosis 3+ / Number of Animals with necrosis 4+: LD90 acetaminophen ip, liver histology, Mitchell rating
Protocol: Compounds 1a through 1h were evaluated in a mouse model for their ability to protect against the hepatotoxic action of acetaminophen. The experimental protocol involved the administration of an LD90 dose of acetaminophen, followed 30 min. later by the prodrug as potential protective agent. Toxicity was assessed based on overall survival data at 48 hrs, as well as on histological criteria of hepatocellular damage using the rating system of J. R. Mitchell et al., J. Pharmacol. Exp. Ther., 187, 185 (1973).
The prodrugs of L-cysteine were examined for their ability to protect against acetaminophen-induced hepatotoxicity in mice essentially as described by H. T. Nagasawa et al., J. Med. Chem., 25, 489 (1982). Male Swiss-Webster mice (19 to 31 g) were fasted overnight but given free access to water. An LD90 dose of acetaminophen (750 mg/kg, 4.97 mmol/kg, ip) was then administered, followed 30 min later by a 2.45 mmole/kg ip dose of the L-cysteine prodrug. All injection solutions were freshly prepared in sterile water, except where solubility problems required the use of sterile 0.1N aqueous NaHCO3 or a slurry of the prodrug in 2% aqueous carboxymethylcellulose (CMC). The animals were then given food and water ad libitum and were observed over a 48-hr period.
Represenative sections from the central lobe of the liver were obtained from those animals found dead at 12, 24 and 48 hr. Survivors at 48 hr were sacrificed by cervical dislocation and the liver sections were similarly excised and sectioned. All specimens were fixed on 10% buffered formalin and in Form-a-Less (PMP, Inc., San Diego, CA) and stained with hematoxylin and eosin. The extent of hepatic necrosis was evaluated histologically by an investigator who had no knowledge of the experimental protocols or sample identity.

[4] = system: heptatotoxic dosages of acetaminophen; conditions: previous studies (Nagasawa 1984; Meister US 4,335,210); cited from earlier work
[5] = Hepatocyte, rat hepatocytes, prodrug 1.0 mM, 4 hr incubation, read-out: [GSH] Rel. to Controls
[6] = rat hepatocytes, prodrug 1.0 mM, 4 hr incubation

Row | SMILES | fold induction at 1000 µM (rat hepatocytes [1]; [5]) | [GSH] ± SE (rat hepatocytes [1]; [6]) | [GSH] ± SE (rat hepatocytes [2]; prodrug 1.0 mM) | [GSH] Rel. to Controls (rat hepatocytes [2]; prodrug 1.0 mM) | Survival (48 hr) (%) [3] | Survival (48 hr) (Number) [3] | Number of Animals with necrosis 0 [3] | Number of Animals with necrosis 1+ [3] | Number of Animals with necrosis 2+ [3] | Number of Animals with necrosis 3+ [3] | Number of Animals with necrosis 4+ [3] | protection of mice from hepatotoxic dosages of acetaminophen [4] | [GSH] Rel. to Controls (rat hepatocytes [1]; [6]) | fold induction at 2500 µM (rat hepatocytes [1]; Rattus norvegicus, Hepatocyte, 4 h, read-out: [GSH] Rel. to Controls) | [GSH] ± SE (rat hepatocytes [1]; rat hepatocytes, 2.5 mM, 4 hr incubation) | raised GSH levels by (rat hepatocytes [1]; rat hepatocytes, 2.5 times the concentration of the thiazolidine prodrugs) | [GSH] ± SE (rat hepatocytes [2]; 2.5 mM) | [GSH] Rel. to Controls (rat hepatocytes [2]; 2.5 mM)
1 | O=C(O)[C@@H]1CSC([C@@H](O)[C@H](O)[C@H](O)CO)N1 (mixture of isomers) [AraCys, 2(R,S)-D-arabino-1',2',3',4'-Tetrahydroxybutylthiazolidine-4(R)-carboxylic Acid] | 1.2 | 42.9 ± 2.17 nmol/10^6 cells | 19.5 ± 3.75 nmol/10^6 cells | 0.6 | 40% | 4/10 | 0 | 1 | 2 | 0 | 7 |  |  |  |  |  |  | 
2 | CC1N[C@H](C(=O)O)CS1 (stereo partly drawn) [2(R,S)-methylthiazolidine-4R-carboxylate] |  |  |  |  |  |  |  |  |  |  |  | can protect mice |  |  |  |  |  | 
3 | CCCCCC1N[C@H](C(=O)O)CS1 (stereo partly drawn) [2(R,S)-n-pentyl] |  |  |  |  |  |  |  |  |  |  |  | can protect mice |  |  |  |  |  | 
4 | CCCC1N[C@H](C(=O)O)CS1 (stereo partly drawn) [2(R,S)-n-propyl-] |  |  |  |  |  |  |  |  |  |  |  | can protect mice |  |  |  |  |  | 
5 | O=C(O)[C@@H]1CSC([C@H](O)[C@@H](O)[C@@H](O)[C@H](O)CO)N1 (stereo partly drawn) [GalCys, 2(R,S)-D-galacto-1',2',3',4',5'-Pentahydroxypentylthiazolidine-4(R)-carboxylic Acid] | 1.6 | 58.0 ± 2.00 nmol/10^6 cells | 23.2 ± 2.56 nmol/10^6 cells | 0.7 | 60% | 6/10 | 1 | 3 | 2 | 0 | 4 |  |  |  |  |  |  | 
6 | O=C(O)[C@@H]1CSC([C@H](O)[C@@H](O)[C@H](O)[C@H](O)CO)N1 (stereo partly drawn) [GlcCys, 2(R,S)-D-gluco-1',2',3',4',5'-Pentahydroxypentylthiazolidine-4(R)-carboxylic Acid] | 2.1 | 75.2 ± 2.15 nmol/10^6 cells | 25.4 ± 0.99 nmol/10^6 cells | 0.7 | 30% | 3/10 | 0 | 2 | 0 | 1 | 7 |  | over twice |  |  |  |  | 
7 | O=C(O)[C@@H]1CSC([C@H](O)CO)N1 (stereo partly drawn) [GlycCys, 2(R,S)-D-glycero-1',2'-Dihydroxyethylthiazolidine-4(R)carboxylic Acid] | 1.3 | 46.1 ± 1.10 nmol/10^6 cells | 18.3 ± 6.41 nmol/10^6 cells | 0.5 | 30% | 3/10 | 0 | 0 | 1 | 2 | 7 |  |  |  |  |  |  | 
8 | O=C1N[C@H](C(=O)O)CS1 [L-2-oxothiazolidine-4-carboxylate] |  |  |  |  |  |  |  |  |  |  |  | can protect mice |  |  |  |  |  | 
9 | O=C(O)[C@@H]1CSC([C@@H](O)[C@@H](O)[C@H](O)CO)N1 (stereo partly drawn) [LyxCys, 2(R,S)-D-lyxo-1',2',3',4'-Tetrahydroxybutylthiazolidine-4(R)-carboxylic Acid] | 1.3 | 45.9 ± 1.95 nmol/10^6 cells | 22.4 ± 1.98 nmol/10^6 cells | 0.6 | 30% | 3/10 | 0 | 0 | 0 | 1 | 9 |  |  |  |  |  |  | 
10 | O=C(O)[C@@H]1CSC([C@@H](O)[C@@H](O)[C@H](O)[C@H](O)CO)N1 (stereo partly drawn) [ManCys, 2(R,S)-D-manno-1',2',3',4',5'-Pentahydroxypentylthiazolidine-4(R)-carboxylic Acid] | 1.6 | 57.8 ± 0.87 nmol/10^6 cells | 18.9 ± 1.87 nmol/10^6 cells | 0.5 | 40% | 4/10 | 3 | 0 | 1 | 0 | 6 |  |  |  |  |  |  | 
11 | CC(=O)N[C@@H](CS)C(=O)O [NAC, N-Acetyl-L-cysteine, reference compound] |  |  |  |  | 94% | 17/18 | 13 | 3 | 0 | 1 | 1 | can protect mice |  | 1.3 | 45.8 ± 1.27 nmol/10^6 cells | 30% | 25.5 ± 1.59 nmol/10^6 cells | 0.7
12 | O=C(O)[C@@H]1CSC([C@H](O)[C@H](O)[C@H](O)CO)N1 (stereo partly drawn) [RibCys, 2(R,S)-D-ribo-1',2',3',4'-Tetrahydroxybutylthiazolidine-4(R)-carboxylic Acid] | 1.7 | 61.2 ± 1.52 nmol/10^6 cells | 16.2 ± 3.60 nmol/10^6 cells | 0.5 | 100% | 12/12 | 4 | 2 | 6 | 0 | 0 |  |  |  |  |  |  | 
13 | O=C(O)[C@@H]1CSC([C@H](O)[C@@H](O)[C@H](O)CO)N1 (stereo partly drawn) [XylCys, 2(R,S)-D-xylo-1',2',3',4'-Tetrahydroxybutylthiazolidine-4(R)-carboxylic Acid] | 1.6 | 58.3 ± 0.99 nmol/10^6 cells | 22.6 ± 1.84 nmol/10^6 cells | 0.8 | 60% | 6/10 | 3 | 2 | 0 | 0 | 5 |  |  |  |  |  |  | 
